We go through three compounds from US9951082B2, “Crystal of 6,7-unsaturated-7-carbamoyl morphinan derivative and method for producing the same” (Shionogi & Co., Ltd., priority 2010, dated 2018).

The structures appear in SMILES notation. Counter-ions that a name gives are not always drawn.

Series [1] in a line: Solid stability test of crystal (storage, content by HPLC, appearance). The series is classed as physicochemical. More on the design: key to Change of Appearance: when there was no change in appearance, an evaluation was (−); when there was a little change observed, it was (±). To be noted: for Survival Rate: vs standard stored at −40° C.; for Change in the appearance / Solid stability, decrease in content: all storage conditions, two or four weeks. The method, then:
About 10 mg of crystal was correctly weighed in the 2-mL glass container with a stopper made of polyethylene.
After closing the glass container, it was rolled with parafilm, and stored for two or four weeks at 40° C. or 60° C. The sample stored at 40° C. is called 40° C. with airtight stopper, and the sample saved at 60 C. is called 60° C. with airtight stopper.
Also samples were reserved with the glass container opened at 40° C., relative humidity 89%, or 60° C., for two weeks or four weeks. The sample stored at 40° C. and relative humidity 89% is called 40° C. R.H.89%, and the sample stored at 60° C. is called 60° C. Opened.
Using samples with airtight stopper stored at −40° C. as a standard, the content was measured with the absolute calibration method by the HPLC method under the following conditions:
In addition, when there was no change in appearance, an evaluation was (−), and when there was a little change observed, it was (±).
Column: CAPCELL PAK C18 AQ (3 micrometer 3.0×150 mm)
Column temperature: 50° C.
UV detection wavelength: 231 nm
[A] A mixed solution containing ammonium formate (10 mmol/L) and magnesium chloride (10 mmol/L)

Series [2] is described as follows: Confirmatory test for hygroscopicity of crystal (automated water vapor sorption, DVS). The series is classed as physicochemical. On the procedure:
After completion of the drying, relative humidity was continuously changed at intervals of 5% in a range from 0% to 95% and the amount of water vapor adsorption and desorption of the sample was measured with automated water vapor sorption apparatus: DVS Advantage (Surface Measurement Systems).

Where [3] appears, read: 40° C. R.H. 89%, opened, 2 weeks.
Setting [4] is: 40° C. R.H. 89%, opened, 4 weeks.
Where [5] appears, read: 40° C. airtight stopper, 4 weeks.
Setting [6] is: 60° C. airtight stopper, 2 weeks.
The mark [7] stands for this setting: 60° C. airtight stopper, 4 weeks.

For `CC(C)(NC(=O)C1=C(O)[C@@H]2Oc3c(O)ccc4c3[C@@]23CCN(CC2CC2)[C@H](C4)[C@]3(O)C1)c1nc(-c2ccccc2)no1` [p-toluenesulfonic acid salt (non-solvate)], the “Change of Appearance” value in series [1] (setting [3]) is reported as “−”; in series [1] (setting [4]), “−”; in series [1] (setting [5]), “−”; in series [1] (60° C. Opened, 2 weeks), “−”; in series [1] (60° C. Opened, 4 weeks) it was “−”; in series [1] (setting [6]) it was “−”. Besides, the “Change of Appearance” value in series [1] (setting [7]) was “−”. Besides, the “Survival Rate” value in series [1] (setting [3]) was 99.3%; in series [1] (setting [4]), 100.5%; in series [1] (setting [5]), 98.0%; in series [1] (60° C. Opened, 2 weeks), 100.3%; in series [1] (60° C. Opened, 4 weeks), 98.8%; in series [1] (setting [6]), 99.9%. The “Survival Rate” value in series [1] (setting [7]) was 99.6%. In series [1], the “Change in the appearance” value is recorded as “no change in the appearance”. Besides, the “Solid stability, decrease in content” value in series [1] is on record as “stable”. Also, in series [2] (0% to 95% relative humidity at 25° C.), the “Hygroscopicity (in words)” value is given as “hygroscopicity was little observed”. Moreover, the “Amount of the maximum moisture absorption” value in series [2] (range of 0% to 95% of relative humidity at 25° C.) was “less than 1.2%”.
For the compound `CC(C)(NC(=O)C1=C(O)[C@@H]2Oc3c(O)ccc4c3[C@@]23CCN(CC2CC2)[C@H](C4)[C@]3(O)C1)c1nc(-c2ccccc2)no1` [p-toluenesulfonic acid salt hydrate (form I)], the “Change of Appearance” value in series [1] (setting [3]) is “−”; in series [1] (setting [4]), “±”; in series [1] (60° C. Opened, 2 weeks) it was “−”; in series [1] (60° C. Opened, 4 weeks), “±”; in series [1] (setting [6]), “−”; in series [1] (setting [7]), “±”. Also, the “Survival Rate” value is listed as 101.2% in series [1] (setting [3]); 98.4% in series [1] (setting [4]); 100.5% in series [1] (60° C. Opened, 2 weeks); 98.5% in series [1] (60° C. Opened, 4 weeks); 100.8% in series [1] (setting [6]); 99.2% in series [1] (setting [7]). In series [1], the “Change in the appearance” value is on record as “no change in the appearance”. In series [1], the “Solid stability, decrease in content” value is listed as “stable”.
`CC(C)(NC(=O)C1=C(O)[C@@H]2Oc3c(O)ccc4c3[C@@]23CCN(CC2CC2)[C@H](C4)[C@]3(O)C1)c1nc(-c2ccccc2)no1` [p-toluenesulfonic acid salt hydrate (form II)]: the “Change of Appearance” value in series [1] (setting [3]) was “−”; in series [1] (setting [4]), “±”; in series [1] (60° C. Opened, 2 weeks), “−”; in series [1] (60° C. Opened, 4 weeks) it was “±”; in series [1] (setting [6]), “−”; in series [1] (setting [7]) it was “±”. Besides, the “Survival Rate” value is on record as 100.9% in series [1] (setting [3]); 100.1% in series [1] (setting [4]); 100.7% in series [1] (60° C. Opened, 2 weeks); 100.4% in series [1] (60° C. Opened, 4 weeks); 102.0% in series [1] (setting [6]); 100.6% in series [1] (setting [7]). The “Change in the appearance” value in series [1] is reported as “no change in the appearance”. Moreover, in series [1], the “Solid stability, decrease in content” value is “stable”.
